We go through 1 molecule from US11191749B2, “Pharmaceutical compositions for combination therapy” (GENFIT, priority 2017, dated 2021).

In this test the test system is TGFβ1-induced hHSC (α-SMA). Kind of test: α-SMA ELISA in TGFβ1-induced human primary hepatic stellate cells (single agents and combination matrix, EOB/EOHSA). Format: cell-based. Particulars: 1 h preincubation, TGFβ1 1 ng/ml, 48 h, FIG. 1. How it is done: After 48 hours of incubation, the expression of α-SMA was measured by ELISA. […] Data are presented as mean (triplicates)±standard deviation (SD).
Combinations were tested in a dose-response matrix format and analyzed according to the excess over Bliss (EOB) additivism model. […] Data are presented as mean of quadruplicates. (B) EOB scores were calculated as described in Materials and Methods. […] Data are presented as mean (quadruplicates)±standard deviation (SD).
Combinations were tested in a dose-response matrix format and analyzed according to the excess over Bliss (EOB) additivism model. […] Data are presented as mean (quadruplicates)±standard deviation (SD).
Then, 2-fold and 4-fold higher and lower concentrations were selected.
The human primary hepatic stellate cells (hHSC) (Innoprot) were cultured under standard conditions, as described above.
(An ELISA detects its analyte on a solid surface through an enzyme-linked reagent.)

Regarding `O=C(Nc1ncc([N+](=O)[O-])s1)c1ccccc1O` [TZ, tizoxanide], the “antifibrotic activity (α-SMA) as single agent” value is “profile similar to the parent drug”.
